Data as given in ChEMBL document CHEMBL5518180, “Design, synthesis, and biological evaluation of harmine derivatives as topoisomerase I inhibitors for cancer treatment” (Eur J Med Chem, 2024).
Activity calls are given as the source filed them. No cut-off for these calls is given here.

How the values were obtained:
MCF7 [1] = experiment: Induction of apoptosis in human MCF7 cells assessed as late apoptotic cells at 25 uM incubated for 24 hrs by Annexin V-FITC/Propidium Iodide staining based flow cytometry analysis (reference value: 5.58 %); type: functional
MCF7 [2] = experiment: Antiproliferative activity against human MCF7 cells assessed as inhibition of cell growth incubated for 48 hrs by MTT assay; type: functional, cell-based; conditions: MCF7, 48 h
MCF7 [3] = experiment: Induction of apoptosis in human MCF7 cells assessed as early apoptotic cells at 25 uM incubated for 24 hrs by Annexin V-FITC/Propidium Iodide staining based flow cytometry analysis (reference value: 2.54 %); type: functional
MCF7 [4] = experiment: Induction of apoptosis in human MCF7 cells assessed as viable cells at 25 uM incubated for 24 hrs by Annexin V-FITC/Propidium Iodide staining based flow cytometry analysis (reference value: 91.8 %); type: functional; conditions: read-out: Activity
[5] = Cytotoxicity against human L02 cells assessed as inhibition of cell growth incubated for 48 hrs by MTT assay; type: toxicity, cell-based
HepG2 = experiment: Antiproliferative activity against human HepG2 cells assessed as inhibition of cell growth incubated for 48 hrs by MTT assay; type: functional, cell-based; conditions: HepG2, 48 h
PC-3 = experiment: Antiproliferative activity against human PC-3 cells assessed as inhibition of cell growth incubated for 48 hrs by MTT assay; type: functional, cell-based; conditions: PC-3, 48 h
HT-29 = experiment: Antiproliferative activity against human HT-29 cells assessed as inhibition of cell growth incubated for 48 hrs by MTT assay; type: functional, cell-based; conditions: HT-29, 48 h
MDA-MB-231 = experiment: Antiproliferative activity against human MDA-MB-231 cells assessed as inhibition of cell growth incubated for 48 hrs by MTT assay; type: functional, cell-based; conditions: MDA-MB-231, 48 h
MCF7 [6] = experiment: Induction of apoptosis in human MCF7 cells assessed as necrotic cells at 25 uM incubated for 24 hrs by Annexin V-FITC/Propidium Iodide staining based flow cytometry analysis (reference value: 0.082 %); type: functional
A549 = experiment: Antiproliferative activity against human A549 cells assessed as inhibition of cell growth incubated for 48 hrs by MTT assay; type: functional, cell-based; conditions: A549, 48 h
4T1 = experiment: Antitumor activity against mouse 4T1 cells transplanted in BALB/c mouse assessed as tumor growth inhibition rate at 10 mg/kg, ip administered for 14 days relative to control; type: functional; parameters: scale not given: the % may be the effect or the level left; conditions: time 14 day
MCF7 [7] = experiment: Induction of DNA double-strand breaks in human MCF7 cells assessed as increase in gamma-H2AX at 10 uM incubated for 48 hrs by DAPI staining based confocal laser scanning microscopy; type: functional, cell-based
MCF7 [8] = experiment: Induction of DNA damage in human MCF7 cells at 10 uM incubated for 24 hrs by Comet assay; type: functional, cell-based

Compound	Activity (MCF7 [1]) [%]	IC50 (MCF7 [2]) [µM]	Activity (MCF7 [3]) [%]	viability at 25 µM (MCF7 [4]) [%]	IC50 at 48 h [5] [µM]	IC50 (HepG2) [µM]	IC50 (PC-3) [µM]	IC50 (HT-29) [µM]	IC50 (MDA-MB-231) [µM]	Activity (MCF7 [6]) [%]	IC50 (A549) [µM]	Activity (4T1) [%]	Activity (MCF7 [7])	Activity (MCF7 [8])
COc1ccc2c(c1)[nH]c1c(C)nccc12 [HARMINE]	7.48	13.4	9.74	82.7	9.49	19.2	15.6	12.2	13.2	0.055	–	–	–	–
COc1ccc2[nH]c3c(C(=O)/C=C/c4cc(F)c(F)c(F)c4)nccc3c2c1	–	4.23	–	–	> 20	15.9	> 10	2.72	6.52	–	> 20	–	–	–
COc1ccc2[nH]c3c(C(=O)/C=C/c4ccc5c(c4)OCCO5)nccc3c2c1	–	14.5	–	–	> 20	15.6	3.79	> 20	18.1	–	> 20	–	–	–
CCc1c2c(nc3ccc(OC(=O)N4CCC(N5CCCCC5)CC4)cc13)-c1cc3c(c(=O)n1C2)COC(=O)[C@]3(O)CC [IRINOTECAN]	–	–	–	–	–	–	–	–	–	–	–	41.27	–	–
COc1cc(Br)c(/C=C/C(=O)c2nccc3c2[nH]c2ccccc23)cc1OC	–	2.21	–	–	> 20	9.65	> 10	3.75	7.03	–	9.83	–	–	–
COc1ccc2[nH]c3c(C(=O)/C=C/c4ccc(OC)c(OC)c4OC)nccc3c2c1	–	6.1	–	–	> 20	> 20	> 10	6.08	> 20	–	7.1	–	–	–
COc1ccc2[nH]c3c(C(=O)/C=C/c4ccc(Cl)c([N+](=O)[O-])c4)nccc3c2c1	–	> 20	–	–	> 20	7.72	> 10	> 20	2.99	–	5.72	–	–	–
CCc1ccc(/C=C/C(=O)c2nccc3c2[nH]c2ccccc23)cc1	–	> 20	–	–	> 20	> 20	> 10	> 20	> 20	–	> 20	–	–	–
COc1ccc2[nH]c3c(C(=O)/C=C/c4cccc(I)c4)nccc3c2c1	–	1.58	–	–	> 20	> 20	> 10	2.34	8.71	–	> 20	–	–	–
O=C(/C=C/c1cc(Cl)ccc1Cl)c1nccc2c1[nH]c1ccccc12	–	0.59	–	–	9.91	3.37	1.4	3.14	2.77	–	6.78	–	–	–
O=C(/C=C/c1cc(F)c(F)c(F)c1)c1nccc2c1[nH]c1ccccc12	–	0.88	–	–	17.8	0.96	1.19	0.89	2.05	–	5.73	–	–	–
COc1cccc(OC)c1/C=C/C(=O)c1nccc2c1[nH]c1ccccc12	–	10.5	–	–	> 20	> 20	> 10	> 20	> 20	–	> 20	–	–	–
COc1ccc2[nH]c3c(C(=O)/C=C/c4cc(Cl)ccc4Cl)nccc3c2c1	–	7.95	–	–	> 20	> 20	> 10	0.68	8.13	–	> 20	–	–	–
CC[C@@]1(O)C(=O)OCc2c1cc1n(c2=O)Cc2cc3ccccc3nc2-1 [CAMPTOTHECIN]	–	6.85	–	–	0.59	1.8	6.6	1.87	0.62	–	7.8	–	Active	Active
COc1ccc2[nH]c3c(C(=O)/C=C/c4ccc([N+](=O)[O-])cc4)nccc3c2c1	–	15.5	–	–	> 20	> 20	> 10	> 20	> 20	–	> 20	–	–	–
O=C(/C=C/c1ccccc1Cl)c1nccc2c1[nH]c1ccccc12	–	3.35	–	–	11.4	2.8	2.39	12.5	3.43	–	5.37	–	–	–
